From a melting point compilation (Tetko et al.; mined from patent text by program, amines drawn as free bases though some values may be those of a salt)

First: CC(=O)CN1CCNC1=Nc1cc2c(cc1Br)OCCO2
Second: CCOC(=O)C1=COc2ccc(OC(C)=O)cc2O1
The melting point of the first is higher: 98 to 100 °C for the first, 66 °C for the second.

Compared with `CCOCCn1c(N2CCCN(CCC3(c4ccc(OC)c(OC)c4)CCN(C(=O)c4cc(OC)c(OC)c(OC)c4)C3)CC2)nc2ccccc21` (stereo not given), `COc1cc(NC(=O)Nc2cccc3c2C2CC(=O)CCN2C3=O)nc2ccccc12` (stereo not given) is higher in melting point: 90 to 100 °C for the first, 223 to 225 °C for the second.

First: COc1cc(OC)c2cnoc2c1
Second: COc1ccc(OC)c(OCCCCl)c1
The melting point of the first is higher: 100 to 101 °C for the first, 48 to 50 °C for the second.

First: COc1cc2c(cc1OC)C1C(Cl)=NC=NC1N2 (stereo not given)
Second: COc1cc2nc(N)nc(-c3ccc(Br)cc3)c2cc1OC
The melting point of the first is lower: 148 to 150 °C for the first, 270 to 272 °C for the second.

First: COc1ccc(COC(=O)C(N)CCCCNC(=O)OC(C)(C)C)cc1 (stereo not given)
Second: COC(=O)c1ccccc1OCC(O)CNC(C)(C)CNC(N)=O (stereo not given)
The melting point of the first is higher: 118 to 120 °C for the first, 62 °C for the second.

Compared with `CCCCN(C=Nc1nnnc2c1ncn2C1CC(O)C(CO)O1)CCCC` (stereo not given), `CCCCCCNC1=NS(=O)(=O)c2ccc(Cl)cc2N1` is higher in melting point: 107 to 109 °C for the first, 244 to 247 °C for the second.

Compared with `CC(C)(C)C(=O)C(Br)C(c1ccc(Cl)cc1Cl)S(=O)(=O)c1ccc(Cl)cc1` (stereo not given), `CC1(C)OC(=O)C(Oc2ccc(Cl)nc2)=C1c1ccc(S(C)(=O)=O)cc1` is higher in melting point: 184 to 185 °C for the first, 196 to 197 °C for the second.

Compared with `CC(=O)NC(=O)c1ccc(OCCn2ccnc2)cc1`, `CCCC(c1ccc(C#N)cc1)n1ccnc1` (stereo not given) is lower in melting point: 164 to 165 °C for the first, 63 to 71 °C for the second.

First: Clc1cccc(Nc2ncnc3[nH]nc(NCc4ccc(-c5ccccc5)cc4)c23)c1
Second: O=C(c1ccccc1F)c1cc(Cl)ccc1C=CCN1C(=O)c2ccccc2C1=O
The melting point of the first is higher: 250 to 252 °C for the first, 117 °C for the second.

Compared with `COc1ccc(COCc2nc(C(C)C)c(Sc3cc(Cl)cc(Cl)c3)[nH]2)cc1`, `CCCCCCCC(=O)NC(=O)OCc1nc(C(C)C)c(Sc2cc(Cl)cc(Cl)c2)n1Cc1ccncc1` is higher in melting point: 96 to 97 °C for the first, 139 to 141 °C for the second.

First: Cc1cncn1CC#Cc1cc(CN2CCOCC2)cc2c(=O)c(C(=O)NCc3ccc(Cl)cc3)cn(C)c12
Second: CCc1nc2c(cnn2CC)c(NC2CCOCC2)c1CNC(=O)c1cc(C)cc(C(=O)NCc2ccc(C)c(Br)c2)c1
The melting point of the first is higher: 149 to 152 °C for the first, 117 to 119 °C for the second.

First: Cc1cc(Cl)c(Cl)cc1C(=O)O
Second: COC(=O)c1cc(Cl)cc(I)c1O
The melting point of the first is higher: 176 to 178 °C for the first, 143 to 145 °C for the second.

First: COC(=O)C1CSC(=O)C1 (stereo not given)
Second: COC(=O)CCCCc1csc(N)n1
The melting point of the first is lower: 33 to 35 °C for the first, 131 °C for the second.

First: CS(=O)(=O)N1CCC(Nc2nc(Nc3ccc(F)c(C(=O)N4CCOCC4)c3)nc(OCC(F)(F)F)n2)CC1
Second: CC(C)(CO)NS(=O)(=O)c1cc(NC(=O)c2cnn3c(C(F)(F)F)cc(-c4ccc(C(F)(F)F)cc4)nc23)c(Cl)s1
The melting point of the first is lower: 217 to 219 °C for the first, 223 °C for the second.

Compared with `CC(=O)SCC(Cc1ccc(C)cc1)C(=O)Nc1cccc(C(=O)O)c1` (stereo not given), `Cc1ccc(N2N=CC(=NNc3cccc(-c4cccc(C(=O)O)c4)c3O)C2=O)cc1C` is higher in melting point: 174 to 175 °C for the first, 226 to 228 °C for the second.

First: COc1cc(Br)c(Nc2nc(C)nc(-c3ccccc3C(F)(F)F)c2[N+](=O)[O-])c(OC)c1
Second: CCC(COC)Nc1nc(C)nc(N2CCc3cc(OC)cc(Cl)c32)c1I (stereo not given)
The melting point of the first is lower: 147 to 148 °C for the first, 150 to 152 °C for the second.

Compared with `CC(C)N(C(=O)c1ccc(N)cc1)C(C)C`, `CC(=O)c1ccc(NS(C)(=O)=O)c(Nc2ccc(F)cc2F)c1` is lower in melting point: 170 °C for the first, 113 to 115 °C for the second.

First: c1ccc2c(c1)CCN(Cc1c[nH]c3ncccc13)C2
Second: C1=C(c2c[nH]c3ccccc23)CCN(CC2CCc3ccccc3O2)C1 (stereo not given)
The melting point of the first is higher: 190 to 192 °C for the first, 171 to 173 °C for the second.

First: N/C(=C1/Sc2ccccc2C1=O)c1ccccc1Br
Second: COC(=O)c1ccccc1-c1ccc(CBr)cc1
The melting point of the first is higher: 143 to 144 °C for the first, 51 to 53 °C for the second.

Compared with `CCSc1cc(C)nc(SCC)c1NC(=O)CCCCCCCSc1nc2ccccc2[nH]1`, `CCCc1c(O)c(C(=O)O)cc(Cl)c1OCCCCCCc1cccc(O)c1O` is lower in melting point: 166 to 168 °C for the first, 110 to 113 °C for the second.

First: COc1ccc(Cn2nc(-n3cnn(Cc4ccc(F)cc4)c3=O)cc2C(=O)O)cc1
Second: COC(=O)c1ccccc1Cn1ccc(OCc2ccc(F)cc2)c(Br)c1=O
The melting point of the first is higher: 205 to 207 °C for the first, 161 to 165 °C for the second.

First: Cc1nnc2sc3cc(Cl)ccc3n12
Second: CCOC(=O)COc1cccc(Cl)c1
The melting point of the first is higher: 186 to 188 °C for the first, 39 to 40 °C for the second.

First: O=C(O)CCC(=O)NCC(=O)N1c2ccccc2N(Cc2ccccc2)C(=O)[C@H]2CCC[C@H]21 (relative stereo)
Second: OCc1ccccc1NC1CCN(Cc2ccccc2)CC1
The melting point of the first is lower: 148 to 151 °C for the first, 164 to 168 °C for the second.

First: COC1(c2cc(F)cc(Sc3ccc(CONC(N)=O)cc3)c2)CCOCC1
Second: CCSc1noc(-c2ccc(NS(C)(=O)=O)c(Oc3ccc(F)cc3F)c2)n1
The melting point of the first is lower: 104 to 105 °C for the first, 116 to 119 °C for the second.

Compared with `Cn1ncc2c1-c1c(SC(C)(C)C)sc(C(N)=O)c1CC2`, `COC(=O)Cc1ccc(C(C)(C)C)c([N+](=O)[O-])c1` is lower in melting point: 146 to 147 °C for the first, 92 to 95 °C for the second.

First: Cn1nc(N)nc1NCCCOc1cccc(CN2C(=O)c3ccccc3C2=O)c1
Second: O=C(NCCO)c1cccc(-c2cccc3c2CN(Cc2cccc(C(F)(F)F)c2)C3=O)c1
The melting point of the first is lower: 55 to 57 °C for the first, 148 to 149 °C for the second.

First: Cc1ccc(C)c(Cc2c3ccc(C(C)(C)C)cc3c(Cc3cc(C)ccc3C)c3ccc(C(C)(C)C)cc23)c1
Second: O=C(O)Cc1c(C(=O)O)c2cc(Oc3cccc(Cl)c3)ccc2n1-c1ccc(OC(F)(F)F)cc1
The melting point of the first is higher: 273 to 275 °C for the first, 190 to 195 °C for the second.

First: CCCC[C@H](NC(=O)[C@H](CC(C)C)NC(=O)c1coc2ccccc12)C(=O)CSCc1ccco1
Second: CC(C)C[C@H](NC(=O)[C@H](Cc1c[nH]cn1)NC(=O)[C@H](Cc1ccccc1)NC(=O)OCc1ccccc1)[C@H](O)CO
The melting point of the first is lower: 113 to 116 °C for the first, 159 to 162 °C for the second.

First: O=C(O)CS(=O)(=O)Nc1c(F)cc(F)cc1F
Second: O=C(O)c1cc(Br)cc([N+](=O)[O-])c1Br
The melting point of the first is lower: 126 to 127 °C for the first, 225 to 229 °C for the second.

First: CCCC(=Cc1ccsc1)[N+](=O)[O-]
Second: CC(=O)C(=Cc1ccc(Cl)c([N+](=O)[O-])c1)C(C)=O
The melting point of the first is lower: 52 to 54.5 °C for the first, 110 to 111 °C for the second.

First: CC(=O)OCCC1CCc2c(C3=C(c4cn(C)c5ccccc45)C(=O)OC3=O)c3ccccc3n2C1 (stereo not given)
Second: CCOC(=O)c1nn(-c2ccc(C)cc2)cc1-c1ccccc1
The melting point of the first is higher: 182 to 184 °C for the first, 115 to 117 °C for the second.

Compared with `COC(=O)c1ccc(C(=O)c2ccc(C(=O)OC)cc2)cc1`, `CCC(CC)C(NC(=O)c1ccc(Cl)cc1)NC(=C[N+](=O)[O-])Nc1cccnc1` (stereo not given) is lower in melting point: 228 to 230 °C for the first, 192 to 193 °C for the second.

First: COc1ccc(N2CCN(c3c(C)c(C)c4c(c3C)C(=O)C(C)(C)O4)CC2)cc1C
Second: Cc1c(N2CCC(N(C)C)C(C)(C)C2)c(F)cc2c(=O)c(C(=O)O)cn(C3CC3)c12 (stereo not given)
The melting point of the first is lower: 129 to 131 °C for the first, 209 to 210 °C for the second.

First: CC12CC(=CO)C(=O)C=C1CCC1C2CCC2(C)C1C=CC2(C)O (stereo not given)
Second: CC(=O)OC1(O)C(C(C)(C)C)=CC(C(=O)c2ccccc2O)=CC1C(C)(C)C (stereo not given)
The melting point of the first is lower: 176 °C for the first, 182 to 186 °C for the second.

First: O=C(CO)Nc1ccccc1-c1nnc(C(c2ccc(Cl)cc2)c2c(Cl)cc(-n3ncc(=O)[nH]c3=O)cc2Cl)o1 (stereo not given)
Second: COC(=O)C(CCSC)NC(=O)c1ccc(NC(=O)Cc2cn(S(=O)(=O)c3ccc(C)cc3)cn2)cc1-c1ccccc1 (stereo not given)
The melting point of the first is higher: 235 °C for the first, 202 to 203 °C for the second.

First: Cc1ccc(N)c(C(=S)NCC2CC2)c1
Second: O=C(NCc1ccccn1)OCCOCCOC(=O)NCC1CCCCC1
The melting point of the first is higher: 124 °C for the first, 65 to 67 °C for the second.

First: O=C(Nc1c[nH]nc1C(=O)NCCc1ccccc1)c1ccccn1
Second: CN(CCCNc1ncc(Cc2ccccc2)c(=O)[nH]1)c1ccccn1
The melting point of the first is higher: 214 to 215 °C for the first, 75 to 85 °C for the second.

First: O=C1C(CCO)Oc2ccccc2N1Cc1ccc([N+](=O)[O-])cc1 (stereo not given)
Second: Cc1sc(-c2ccccc2)nc1CCOc1ccc([N+](=O)[O-])cn1
The melting point of the first is lower: 124 to 127 °C for the first, 131 to 132 °C for the second.

First: Oc1ccc(-c2nnc(CSCCOc3ccccc3)o2)cc1
Second: CCCSc1c2ccccc2nc2c1c(C)nn2-c1ccccn1
The melting point of the first is higher: 172 to 175 °C for the first, 91 to 93 °C for the second.

First: c1ncn2nncc2n1
Second: CCOC=Cc1ncnc2c1ncn2Cc1ccccc1
The melting point of the first is higher: 249 to 251 °C for the first, 114 to 115 °C for the second.

Compared with `Cc1n[nH]c(=O)c(-c2c(F)cc(F)cc2F)c1-c1ccc2ccccc2c1`, `COC(=O)C1=C(C)NC(C)=C(c2nc(N(C)Cc3ccccc3)no2)C1c1cccc([N+](=O)[O-])c1` (stereo not given) is lower in melting point: 266 to 268 °C for the first, 182 to 184 °C for the second.

First: NS(=O)(=O)c1ccc(S(=O)(=O)NCc2cccs2)s1
Second: O=C1c2ccccc2-c2ccncc21
The melting point of the first is lower: 146 to 148 °C for the first, 152 to 153 °C for the second.

Compared with `CN(CC(F)(F)F)C(=O)COc1nc2ccccc2o1`, `O=C(O)CCCc1ccc2sc3ccccc3c2c1` is higher in melting point: 92 °C for the first, 127 to 128 °C for the second.

First: CCOC(=O)NC(=S)Nc1cc(NC(=O)OC)ccc1NC(=O)CN(C)C
Second: O=C(O)CC(CC(=O)O)NC(=O)OCC1c2ccccc2-c2ccccc21
The melting point of the first is lower: 171 to 172 °C for the first, 189 to 190 °C for the second.

Compared with `OCCCN1CC=C(c2cn(-c3ccc(F)cc3)c3ccc(C(F)(F)F)cc23)CC1`, `Cc1c(C(N)=O)c(C(F)(F)F)nn1-c1c(Cl)cc(C(F)(F)F)cc1Cl` is lower in melting point: 173 to 175 °C for the first, 165 to 170 °C for the second.

Compared with `N#Cc1cc(C=O)cnc1Cl`, `CCCCNc1nc(N)nc(-c2ccc(Cl)c(Cl)c2)n1` is higher in melting point: 96 °C for the first, 176 to 179 °C for the second.

First: CCOC(OCC)[C@@H]1CCCN1C(=O)[C@@H]1CCCN1C(=O)OCc1ccccc1
Second: COCc1ncn2c1CN(C)C(=O)c1c(Cl)cccc1-2
The melting point of the first is lower: 58.5 to 61 °C for the first, 143 to 144 °C for the second.

First: CS(=O)(=O)C(S(C)(=O)=O)S(=O)(=O)O
Second: COc1ccnc(C(C)O)c1 (single isomer, unassigned; (+))
The melting point of the first is higher: > 300 °C for the first, 92 °C for the second.

Compared with `FC(F)=C(F)Oc1ccc(C2(c3ccc(OC(F)=C(F)F)cc3)c3ccccc3-c3ccccc32)cc1`, `N=C(CCCSc1nccc(NC(N)=NCC(F)(F)F)n1)NC(N)=O` is lower in melting point: 115 to 116 °C for the first, 112 to 115 °C for the second.

First: CCN(CC)C(=O)Nc1cc(C(C)(C)C)on1
Second: c1cc(CC[C@H]2CNCCN2)ccn1
The melting point of the first is higher: 122 to 124 °C for the first, 113 to 116 °C for the second.
